Test results taken from PubChem BioAssay AID330 (DTP/NCI, 2004).
Values joined by “and” are separate entries in the source; they are usually repeats but may differ in a detail not shown here. Equal entries are not always repeated. Inconclusive results and toxic doses are left out.

System: P388 leukemia ip, CD2F1 mice, survival T/C
Experiment: NCI In Vivo Anticancer Drug Screen. Data for tumor model P388 Leukemia (intraperitoneal) in CD2F1 (CDF1) mice
Details: endpoint: median survival time, higher = longer survival
Summary of the method: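 Mice carrying the transplanted tumor received test compound or vehicle. Survival was recorded in each group, and the value is the treated-group measurement divided by that of the vehicle-treated control group.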

[1] = dose: 50.0 mg/kg/injection, schedule: Q01DX005 (ip), vehicle: saline with Tween-80
[2] = dose: 100.0 mg/kg/injection, schedule: Q01DX005 (ip), vehicle: saline with Tween-80
[3] = dose: 200.0 mg/kg/injection, schedule: Q01DX005 (ip), vehicle: saline with Tween-80

O=C1C=CC(=O)C2=C1CCCC2
T/C (dose: 2.0 mg/kg/injection, schedule: Q01DX009 (ip), vehicle: saline with Tween-80): 100 % of control
T/C (dose: 2.9 mg/kg/injection, schedule: Q01DX009 (ip), vehicle: saline with Tween-80): 100 % of control
T/C (dose: 3.12 mg/kg/injection, schedule: Q01DX009 (ip), vehicle: saline with Tween-80): 100 % of control
T/C (dose: 4.5 mg/kg/injection, schedule: Q01DX009 (ip), vehicle: saline with Tween-80): 100 % of control
T/C (dose: 6.25 mg/kg/injection, schedule: Q01DX009 (ip), vehicle: saline with Tween-80): 100 % of control
T/C (dose: 6.5 mg/kg/injection, schedule: Q01DX009 (ip), vehicle: saline with Tween-80): 100 % of control
T/C (dose: 12.5 mg/kg/injection, schedule: Q01DX009 (ip), vehicle: saline with Tween-80): 102 % of control

COc1cc(C2c3cc4c(cc3C3OC(=O)C2C3CO)OCO4)cc(OC)c1OC (stereo not given)
T/C (dose: 0.12 mg/kg/injection, schedule: Q01DX009 (ip), vehicle: Klucel (hydroxypropylcellulose) (HPC)): 117 % of control
T/C (dose: 0.25 mg/kg/injection, schedule: Q01DX009 (ip), vehicle: Klucel (hydroxypropylcellulose) (HPC)): 115 % of control
T/C (dose: 0.5 mg/kg/injection, schedule: Q01DX009 (ip), vehicle: Klucel (hydroxypropylcellulose) (HPC)): 120 % of control
T/C (dose: 3.12 mg/kg/injection, schedule: Q01DX009 (ip), vehicle: Klucel (hydroxypropylcellulose) (HPC)): 118 % of control
T/C (dose: 6.25 mg/kg/injection, schedule: Q01DX009 (ip), vehicle: Klucel (hydroxypropylcellulose) (HPC)): 118 % of control

COc1cc(C2Oc3c(OC)cc(CC4C(=O)OCC4Cc4ccc(OC)c(OC)c4)cc3C2CO)ccc1O (stereo not given)
T/C (dose: 2.5 mg/kg/injection, schedule: Q01DX009 (ip), vehicle: saline with Tween-80): 104 % of control
T/C (dose: 5.0 mg/kg/injection, schedule: Q01DX009 (ip), vehicle: saline with Tween-80): 102 % of control
T/C (dose: 10.0 mg/kg/injection, schedule: Q01DX009 (ip), vehicle: saline with Tween-80): 101 % of control
T/C (dose: 20.0 mg/kg/injection, schedule: Q01DX009 (ip), vehicle: saline with Tween-80): 101 % of control

O=C(C1=C(Nc2ccccc2)CCC1)c1ccccc1
T/C (dose: 50.0 mg/kg/injection, schedule: Q01DX009 (ip), vehicle: saline): 116 % of control
T/C (dose: 100.0 mg/kg/injection, schedule: Q01DX009 (ip), vehicle: saline): 106 % of control
T/C (dose: 200.0 mg/kg/injection, schedule: Q01DX009 (ip), vehicle: saline): 106 % of control

NC(=O)c1csc(C2OC(CO)C(O)C2O)n1 (stereo not given)
T/C (dose: 75.0 mg/kg/injection, schedule: Q01DX005 (ip), vehicle: saline): 158 % of control
T/C (dose: 100.0 mg/kg/injection, schedule: Q01DX005 (ip), vehicle: saline): 155 % of control and 159 % of control and 161 % of control
T/C (dose: 100.0 mg/kg/injection, schedule: Q01DX005 (ip), vehicle: water): 157 % of control
T/C (dose: 150.0 mg/kg/injection, schedule: Q01DX005 (ip), vehicle: saline): 152 % of control and 158 % of control
T/C (dose: 200.0 mg/kg/injection, schedule: Q01DX005 (ip), vehicle: saline): 173 % of control and 174 % of control and 178 % of control
T/C (dose: 200.0 mg/kg/injection, schedule: Q01DX005 (ip), vehicle: water): 171 % of control
T/C (dose: 300.0 mg/kg/injection, schedule: Q01DX005 (ip), vehicle: saline): 163 % of control and 177 % of control
T/C (dose: 300.0 mg/kg/injection, schedule: Q01DX005 (ip), vehicle: water): 158 % of control
T/C (dose: 300.0 mg/kg/injection, schedule: Q01DX009 (ip), vehicle: water): 193 % of control and 198 % of control
T/C (dose: 400.0 mg/kg/injection, schedule: Q01DX005 (ip), vehicle: saline): 181 % of control and 187 % of control and 198 % of control
T/C (dose: 400.0 mg/kg/injection, schedule: Q01DX005 (ip), vehicle: water): 164 % of control and 189 % of control
T/C (dose: 400.0 mg/kg/injection, schedule: Q01DX009 (ip), vehicle: water): 201 % of control and 224 % of control
T/C (dose: 600.0 mg/kg/injection, schedule: Q01DX005 (ip), vehicle: saline): 177 % of control
T/C (dose: 600.0 mg/kg/injection, schedule: Q01DX005 (ip), vehicle: water): 169 % of control
T/C (dose: 600.0 mg/kg/injection, schedule: Q01DX009 (ip), vehicle: water): 234 % of control and 237 % of control
T/C (dose: 700.0 mg/kg/injection, schedule: Q01DX009 (ip), vehicle: water): 245 % of control and 86 % of control
T/C (dose: 750.0 mg/kg/injection, schedule: Q01DX009 (ip), vehicle: water): 117 % of control
T/C (dose: 800.0 mg/kg/injection, schedule: Q01DX005 (ip), vehicle: saline): 217 % of control
T/C (dose: 800.0 mg/kg/injection, schedule: Q01DX009 (ip), vehicle: water): 99 % of control and 245 % of control

Cc1ccc(C(=O)CS(=O)(=O)c2ccc(C)cc2)cc1
T/C (dose: 50.0 mg/kg/injection, schedule: Q01DX009 (ip), vehicle: Klucel (hydroxypropylcellulose) (HPC)): 101 % of control
T/C (dose: 100.0 mg/kg/injection, schedule: Q01DX009 (ip), vehicle: Klucel (hydroxypropylcellulose) (HPC)): 98 % of control
T/C (dose: 200.0 mg/kg/injection, schedule: Q01DX009 (ip), vehicle: Klucel (hydroxypropylcellulose) (HPC)): 96 % of control

N#CC(C(=O)CCCC(=O)Nc1cccc([N+](=O)[O-])c1)c1c(Cl)cccc1Cl (stereo not given)
T/C [1]: 111 % of control
T/C [2]: 111 % of control
T/C [3]: 105 % of control

CC(C)(C)OC(=O)NC(Cc1ccc(O)cc1)C(=O)O (stereo not given)
T/C (dose: 50.0 mg/kg/injection, schedule: Q01DX005 (ip), vehicle: Klucel (hydroxypropylcellulose) (HPC)): 102 % of control
T/C (dose: 100.0 mg/kg/injection, schedule: Q01DX005 (ip), vehicle: Klucel (hydroxypropylcellulose) (HPC)): 103 % of control
T/C (dose: 200.0 mg/kg/injection, schedule: Q01DX005 (ip), vehicle: Klucel (hydroxypropylcellulose) (HPC)): 96 % of control

CC1([N+](=O)[O-])C(=O)C2(N3CCCCC3)CCCC2C1c1ccccc1 (stereo not given)
T/C (dose: 60.0 mg/kg/injection, schedule: Q01DX005 (ip), vehicle: Klucel (hydroxypropylcellulose) (HPC)): 99 % of control
T/C (dose: 120.0 mg/kg/injection, schedule: Q01DX005 (ip), vehicle: Klucel (hydroxypropylcellulose) (HPC)): 96 % of control
T/C (dose: 240.0 mg/kg/injection, schedule: Q01DX005 (ip), vehicle: Klucel (hydroxypropylcellulose) (HPC)): 97 % of control

S=C(NC1CCCCC1)NC1CCCCC1
T/C (dose: 100.0 mg/kg/injection, schedule: Q01DX009 (ip), vehicle: saline with Tween-80): 90 % of control
T/C (dose: 100.0 mg/kg/injection, schedule: Q04DX003 (ip), vehicle: saline with Tween-80): 95 % of control
T/C (dose: 200.0 mg/kg/injection, schedule: Q01DX009 (ip), vehicle: saline with Tween-80): 90 % of control
T/C (dose: 200.0 mg/kg/injection, schedule: Q04DX003 (ip), vehicle: saline with Tween-80): 90 % of control
T/C (dose: 400.0 mg/kg/injection, schedule: Q01DX009 (ip), vehicle: saline with Tween-80): 86 % of control
T/C (dose: 400.0 mg/kg/injection, schedule: Q04DX003 (ip), vehicle: saline with Tween-80): 90 % of control

C=CC(CO)N1CC1 (stereo not given)
T/C (dose: 0.78 mg/kg/injection, schedule: Q01DX009 (ip), vehicle: saline): 108 % of control
T/C (dose: 1.56 mg/kg/injection, schedule: Q01DX009 (ip), vehicle: saline): 108 % of control
T/C (dose: 3.13 mg/kg/injection, schedule: Q01DX009 (ip), vehicle: saline): 108 % of control

C=C1C(=O)OC2CC1C(OC(C)=O)CC1(C)OC1CCC1(C)OC1CCC2(C)O (stereo not given)
T/C (dose: 6.26 mg/kg/injection, schedule: Q01DX009 (ip), vehicle: Klucel (hydroxypropylcellulose) (HPC)): 119 % of control
T/C (dose: 12.5 mg/kg/injection, schedule: Q01DX009 (ip), vehicle: Klucel (hydroxypropylcellulose) (HPC)): 117 % of control
T/C (dose: 25.0 mg/kg/injection, schedule: Q01DX009 (ip), vehicle: Klucel (hydroxypropylcellulose) (HPC)): 123 % of control

CC1(C)CO/C(=C/C(=O)c2ccccc2)N1C(=O)c1ccccc1
T/C (dose: 60.0 mg/kg/injection, schedule: Q01DX005 (ip), vehicle: saline with Tween-80): 99 % of control
T/C (dose: 120.0 mg/kg/injection, schedule: Q01DX005 (ip), vehicle: saline with Tween-80): 90 % of control

CCN(CC)c1ncnc2c1nnn2C
T/C [1]: 101 % of control
T/C [2]: 100 % of control
T/C [3]: 107 % of control

CCOc1ccccc1N=Nc1c(-c2ccccc2)nn(C(N)=S)c1-c1ccccc1
T/C [1]: 100 % of control
T/C [2]: 108 % of control
T/C [3]: 101 % of control

C=C1C(=O)OC2CC(C)C3C=CC(=O)C3CC12 (stereo not given)
T/C (dose: 0.15 mg/kg/injection, schedule: Q01DX009 (ip), vehicle: Klucel (hydroxypropylcellulose) (HPC)): 98 % of control
T/C (dose: 0.3 mg/kg/injection, schedule: Q01DX009 (ip), vehicle: Klucel (hydroxypropylcellulose) (HPC)): 100 % of control
T/C (dose: 0.6 mg/kg/injection, schedule: Q01DX009 (ip), vehicle: Klucel (hydroxypropylcellulose) (HPC)): 99 % of control and 103 % of control
T/C (dose: 2.34 mg/kg/injection, schedule: Q01DX009 (ip), vehicle: Klucel (hydroxypropylcellulose) (HPC)): 102 % of control
T/C (dose: 2.4 mg/kg/injection, schedule: Q01DX009 (ip), vehicle: Klucel (hydroxypropylcellulose) (HPC)): 104 % of control
